According to ChEMBL document CHEMBL5244205, “Discovery of tricyclic dipyrrolopyridine derivatives as novel JAK inhibitors” (Bioorg Med Chem, 2017):

Legend:
[1] = molecular target: High affinity nerve growth factor receptor (Homo sapiens, UniProt P04629); experiment: Inhibition of TRKA (unknown origin)
Aurora kinase C = Aurora kinase C (Homo sapiens, UniProt Q9UQB9); experiment: Inhibition of AURC (unknown origin)
[2] = Oral availability in Sprague-Dawley rat at 1 mg/kg measured up to 24 hrs by LC-MS/MS analysis; assay type: ADME, organism-based; details: in vivo
[3] = molecular target: Mitogen-activated protein kinase 8 (Homo sapiens, UniProt P45983); experiment: Inhibition of JNK1 (unknown origin)
[4] = molecular target: Tyrosine-protein kinase ITK/TSK (Homo sapiens, UniProt Q08881); experiment: Inhibition of ITK (unknown origin)
[5] = AUC (0 to 24 hrs) in Sprague-Dawley rat at 1 mg/kg, iv measured up to 24 hrs by LC-MS/MS analysis; assay type: ADME, organism-based; parameters: dose 1 mg/kg, time < 24 hrs, route iv; details: in vivo
[6] = Half life in Sprague-Dawley rat at 1 mg/kg, po measured up to 24 hrs by LC-MS/MS analysis; assay type: ADME, organism-based; details: in vivo
cells = details: Rattus norvegicus, Lewis, Splenocyte, 72 h
Description: Immunosuppressive activity in Lewis rat splenocytes assessed as inhibition of concanavalin A-induced IL-2 receptor expression incubated for 3 days by alamarBlue assay

[7] = molecular target: Epidermal growth factor receptor (Homo sapiens, UniProt P00533); experiment: Inhibition of EGFR (unknown origin)
Ephrin type-A receptor 2 = Ephrin type-A receptor 2 (Homo sapiens, UniProt P29317); experiment: Inhibition of EphA2 (unknown origin)
[8] = molecular target: Bone morphogenetic protein receptor type-1A (Homo sapiens, UniProt P36894); experiment: Inhibition of BMPR1A (unknown origin)
[9] = molecular target: Serine/threonine-protein kinase Chk1 (Homo sapiens, UniProt O14757); experiment: Inhibition of CHK1 (unknown origin)
[10] = Tmax in Sprague-Dawley rat at 1 mg/kg, po measured up to 24 hrs by LC-MS/MS analysis; assay type: ADME, organism-based; details: in vivo
Cytochrome P450 3A4 = Cytochrome P450 3A4 (Homo sapiens, UniProt P08684); details: microsomes, 20 min, 5 µM
Rattus norvegicus [11] = experiment: Immunosuppressive activity in Lewis rat transplanted with ACI rat cardiac tissue assessed as reduction in graft rejection by measuring mean survival days at 0.1 mg/kg, po administered for 14 consecutive days co-treated with tacrolimus (reference value: 10 days); assay type: functional; details: time 14 day
[12] = molecular target: Proto-oncogene tyrosine-protein kinase Src (Homo sapiens, UniProt P12931); experiment: Inhibition of SRC (unknown origin)
[13] = molecular target: Cyclin-dependent kinase 2 (Homo sapiens, UniProt P24941); experiment: Inhibition of CDK2 (unknown origin)
[14] = molecular target: RAF proto-oncogene serine/threonine-protein kinase (Homo sapiens, UniProt P04049); experiment: Inhibition of RAF1 (unknown origin)
[15] = molecular target: Tyrosine-protein kinase BTK (Homo sapiens, UniProt Q06187); experiment: Inhibition of BTK (unknown origin)
[16] = molecular target: Tyrosine-protein kinase ZAP-70 (Homo sapiens, UniProt P43403); experiment: Inhibition of ZAP70 (unknown origin)
[17] = molecular target: Dual specificity mitogen-activated protein kinase kinase 1 (Homo sapiens, UniProt Q02750); experiment: Inhibition of MAP2K1 (unknown origin)
Rattus norvegicus [18] = experiment: Immunosuppressive activity in Lewis rat transplanted with ACI rat cardiac tissue assessed as reduction in graft rejection by measuring mean survival days at 0.25 mg/kg, po administered for 14 consecutive days co-treated with tacrolimus (reference value: 10 days); assay type: functional; details: time 14 day
[19] = Clearance in Sprague-Dawley rat at 1 mg/kg, iv measured up to 24 hrs by LC-MS/MS analysis; assay type: ADME, organism-based; details: in vivo
[20] = molecular target: Insulin-like growth factor 1 receptor (Homo sapiens, UniProt P08069); experiment: Inhibition of IGF1R (unknown origin)
[21] = molecular target: Tyrosine-protein kinase JAK2 (Homo sapiens, UniProt O60674)
Description: Inhibition of human JAK2 kinase domain using biotin-Lyn-substrate-2 as substrate incubated for 1 hr by ELISA

[22] = Half life in Sprague-Dawley rat at 1 mg/kg, iv measured up to 24 hrs by LC-MS/MS analysis; assay type: ADME, organism-based; details: in vivo
[23] = Cmax in Sprague-Dawley rat at 1 mg/kg, po measured up to 24 hrs by LC-MS/MS analysis; assay type: ADME, organism-based; parameters: time < 24 hrs, dose 1 mg/kg, route po; details: in vivo
[24] = molecular target: Casein kinase I isoform delta (Homo sapiens, UniProt P48730); experiment: Inhibition of CHKdelta (unknown origin)
[25] = molecular target: Tyrosine-protein kinase JAK1 (Homo sapiens, UniProt P23458)
Description: Inhibition of human JAK1 kinase domain using biotin-Lyn-substrate-2 as substrate incubated for 1 hr by ELISA

[26] = molecular target: Tyrosine-protein kinase CSK (Homo sapiens, UniProt P41240); experiment: Inhibition of CSK (unknown origin)
[27] = pampa, pH 6.5, 2 h
Description: Permeability of the compound in pH 6.5 incubated for 2 hrs by PAMPA based HPLC analysis

Sequence of Tyrosine-protein kinase JAK1 (P23458 whole entry): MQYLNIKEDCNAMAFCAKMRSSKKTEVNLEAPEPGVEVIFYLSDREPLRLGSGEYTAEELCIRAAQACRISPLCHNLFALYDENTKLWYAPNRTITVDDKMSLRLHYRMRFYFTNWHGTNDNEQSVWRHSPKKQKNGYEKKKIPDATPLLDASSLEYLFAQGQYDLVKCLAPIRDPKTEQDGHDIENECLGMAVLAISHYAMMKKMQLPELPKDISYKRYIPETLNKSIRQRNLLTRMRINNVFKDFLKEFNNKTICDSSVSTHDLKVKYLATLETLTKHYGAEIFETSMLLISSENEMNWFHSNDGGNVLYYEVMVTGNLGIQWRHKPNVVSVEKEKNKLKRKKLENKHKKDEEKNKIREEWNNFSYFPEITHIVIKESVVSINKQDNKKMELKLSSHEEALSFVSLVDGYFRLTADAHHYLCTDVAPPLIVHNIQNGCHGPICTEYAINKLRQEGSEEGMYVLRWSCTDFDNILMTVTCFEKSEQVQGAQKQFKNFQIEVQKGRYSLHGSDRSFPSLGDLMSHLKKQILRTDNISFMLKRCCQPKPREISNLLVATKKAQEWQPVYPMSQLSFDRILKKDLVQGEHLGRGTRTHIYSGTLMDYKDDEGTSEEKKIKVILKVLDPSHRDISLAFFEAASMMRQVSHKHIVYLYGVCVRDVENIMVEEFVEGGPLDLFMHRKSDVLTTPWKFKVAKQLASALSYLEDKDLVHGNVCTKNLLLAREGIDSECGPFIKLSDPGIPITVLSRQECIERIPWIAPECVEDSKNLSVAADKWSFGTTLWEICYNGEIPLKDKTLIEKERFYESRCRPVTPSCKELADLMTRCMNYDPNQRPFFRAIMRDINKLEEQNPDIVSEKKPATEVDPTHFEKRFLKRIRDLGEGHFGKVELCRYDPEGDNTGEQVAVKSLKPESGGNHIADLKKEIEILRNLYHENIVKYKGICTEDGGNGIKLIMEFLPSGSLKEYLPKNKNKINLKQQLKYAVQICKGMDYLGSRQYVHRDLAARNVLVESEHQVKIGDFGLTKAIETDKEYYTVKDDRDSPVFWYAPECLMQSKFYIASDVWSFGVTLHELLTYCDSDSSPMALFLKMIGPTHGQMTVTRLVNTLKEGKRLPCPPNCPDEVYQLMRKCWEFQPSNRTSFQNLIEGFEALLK
Sequence of Mitogen-activated protein kinase 8 (P45983 whole entry): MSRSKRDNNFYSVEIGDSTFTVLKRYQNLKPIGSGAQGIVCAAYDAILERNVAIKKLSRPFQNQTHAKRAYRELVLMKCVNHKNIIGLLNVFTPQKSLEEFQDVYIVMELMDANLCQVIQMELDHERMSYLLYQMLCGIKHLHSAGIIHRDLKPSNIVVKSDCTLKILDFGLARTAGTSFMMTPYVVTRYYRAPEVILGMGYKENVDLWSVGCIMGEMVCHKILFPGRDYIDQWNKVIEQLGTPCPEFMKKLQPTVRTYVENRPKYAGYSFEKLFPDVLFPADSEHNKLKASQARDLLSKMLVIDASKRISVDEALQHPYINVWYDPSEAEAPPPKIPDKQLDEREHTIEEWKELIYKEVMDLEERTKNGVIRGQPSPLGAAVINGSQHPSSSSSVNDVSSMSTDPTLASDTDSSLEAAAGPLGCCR
Sequence of High affinity nerve growth factor receptor (P04629 whole entry): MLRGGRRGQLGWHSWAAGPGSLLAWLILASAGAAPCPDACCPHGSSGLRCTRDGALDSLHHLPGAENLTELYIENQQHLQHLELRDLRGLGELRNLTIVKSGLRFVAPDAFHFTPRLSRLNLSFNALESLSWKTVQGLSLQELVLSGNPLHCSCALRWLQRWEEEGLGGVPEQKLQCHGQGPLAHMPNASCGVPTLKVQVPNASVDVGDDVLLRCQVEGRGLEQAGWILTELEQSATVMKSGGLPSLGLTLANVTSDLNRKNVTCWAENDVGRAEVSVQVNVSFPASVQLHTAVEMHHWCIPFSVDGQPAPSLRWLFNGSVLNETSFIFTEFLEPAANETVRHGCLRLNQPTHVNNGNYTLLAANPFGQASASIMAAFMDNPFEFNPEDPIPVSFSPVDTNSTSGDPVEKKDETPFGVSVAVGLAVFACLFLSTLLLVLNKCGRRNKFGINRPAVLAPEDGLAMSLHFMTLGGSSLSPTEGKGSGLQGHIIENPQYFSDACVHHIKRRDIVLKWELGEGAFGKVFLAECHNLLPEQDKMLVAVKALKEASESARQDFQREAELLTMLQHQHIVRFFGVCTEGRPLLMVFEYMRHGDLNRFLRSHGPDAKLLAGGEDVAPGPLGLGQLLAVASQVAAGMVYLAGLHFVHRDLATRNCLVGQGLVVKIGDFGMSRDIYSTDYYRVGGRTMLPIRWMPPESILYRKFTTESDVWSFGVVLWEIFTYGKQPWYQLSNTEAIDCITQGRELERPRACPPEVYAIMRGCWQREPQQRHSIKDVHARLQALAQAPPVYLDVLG
Sequence of Tyrosine-protein kinase ZAP-70 (P43403 whole entry): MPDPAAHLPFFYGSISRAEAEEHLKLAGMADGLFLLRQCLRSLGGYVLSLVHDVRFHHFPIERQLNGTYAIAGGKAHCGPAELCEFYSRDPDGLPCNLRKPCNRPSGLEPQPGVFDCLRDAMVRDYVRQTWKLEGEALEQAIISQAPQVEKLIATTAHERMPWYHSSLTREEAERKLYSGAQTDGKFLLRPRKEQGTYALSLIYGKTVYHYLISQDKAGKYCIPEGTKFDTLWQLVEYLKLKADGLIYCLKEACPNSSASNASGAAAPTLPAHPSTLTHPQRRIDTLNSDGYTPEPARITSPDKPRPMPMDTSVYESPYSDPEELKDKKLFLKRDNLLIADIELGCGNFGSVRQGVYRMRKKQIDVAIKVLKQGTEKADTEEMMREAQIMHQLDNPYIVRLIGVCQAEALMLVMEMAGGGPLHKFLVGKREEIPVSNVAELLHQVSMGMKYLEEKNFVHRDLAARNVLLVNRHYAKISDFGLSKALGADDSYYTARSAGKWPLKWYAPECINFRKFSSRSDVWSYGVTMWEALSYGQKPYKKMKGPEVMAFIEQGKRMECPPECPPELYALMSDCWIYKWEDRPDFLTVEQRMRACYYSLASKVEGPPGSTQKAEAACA
Sequence of Bone morphogenetic protein receptor type-1A (P36894 whole entry): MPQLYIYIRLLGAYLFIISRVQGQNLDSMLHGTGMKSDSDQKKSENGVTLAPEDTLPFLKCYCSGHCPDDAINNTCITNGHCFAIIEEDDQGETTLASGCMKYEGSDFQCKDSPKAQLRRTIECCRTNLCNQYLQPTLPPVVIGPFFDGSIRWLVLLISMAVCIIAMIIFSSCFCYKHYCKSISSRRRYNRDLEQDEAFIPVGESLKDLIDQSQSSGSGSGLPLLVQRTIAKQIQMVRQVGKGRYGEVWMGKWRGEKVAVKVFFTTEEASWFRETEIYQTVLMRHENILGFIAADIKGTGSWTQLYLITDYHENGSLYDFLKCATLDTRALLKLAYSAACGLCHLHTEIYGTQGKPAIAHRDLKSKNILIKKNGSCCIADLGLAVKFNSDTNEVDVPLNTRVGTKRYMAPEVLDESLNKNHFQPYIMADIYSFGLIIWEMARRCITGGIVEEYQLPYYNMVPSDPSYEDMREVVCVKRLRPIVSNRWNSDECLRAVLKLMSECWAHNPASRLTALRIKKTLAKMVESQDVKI
Sequence of Tyrosine-protein kinase BTK (Q06187 whole entry): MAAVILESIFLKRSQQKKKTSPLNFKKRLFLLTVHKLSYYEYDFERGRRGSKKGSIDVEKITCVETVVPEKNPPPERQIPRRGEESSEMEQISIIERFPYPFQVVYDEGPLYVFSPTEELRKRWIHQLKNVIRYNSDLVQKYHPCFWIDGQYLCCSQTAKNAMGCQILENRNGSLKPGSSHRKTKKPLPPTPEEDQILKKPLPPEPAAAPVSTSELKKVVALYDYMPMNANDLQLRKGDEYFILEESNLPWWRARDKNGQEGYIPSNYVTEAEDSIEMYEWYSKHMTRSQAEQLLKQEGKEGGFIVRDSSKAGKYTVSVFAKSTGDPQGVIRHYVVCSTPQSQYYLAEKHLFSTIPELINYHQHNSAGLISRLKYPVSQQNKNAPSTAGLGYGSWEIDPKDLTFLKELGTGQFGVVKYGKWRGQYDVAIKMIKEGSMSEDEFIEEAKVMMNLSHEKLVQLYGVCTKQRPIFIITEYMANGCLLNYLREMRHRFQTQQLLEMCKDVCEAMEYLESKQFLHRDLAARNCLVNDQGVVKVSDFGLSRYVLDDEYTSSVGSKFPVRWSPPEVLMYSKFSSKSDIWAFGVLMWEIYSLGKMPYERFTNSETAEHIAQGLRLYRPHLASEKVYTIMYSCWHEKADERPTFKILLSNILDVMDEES
Sequence of Tyrosine-protein kinase ITK/TSK (Q08881 whole entry): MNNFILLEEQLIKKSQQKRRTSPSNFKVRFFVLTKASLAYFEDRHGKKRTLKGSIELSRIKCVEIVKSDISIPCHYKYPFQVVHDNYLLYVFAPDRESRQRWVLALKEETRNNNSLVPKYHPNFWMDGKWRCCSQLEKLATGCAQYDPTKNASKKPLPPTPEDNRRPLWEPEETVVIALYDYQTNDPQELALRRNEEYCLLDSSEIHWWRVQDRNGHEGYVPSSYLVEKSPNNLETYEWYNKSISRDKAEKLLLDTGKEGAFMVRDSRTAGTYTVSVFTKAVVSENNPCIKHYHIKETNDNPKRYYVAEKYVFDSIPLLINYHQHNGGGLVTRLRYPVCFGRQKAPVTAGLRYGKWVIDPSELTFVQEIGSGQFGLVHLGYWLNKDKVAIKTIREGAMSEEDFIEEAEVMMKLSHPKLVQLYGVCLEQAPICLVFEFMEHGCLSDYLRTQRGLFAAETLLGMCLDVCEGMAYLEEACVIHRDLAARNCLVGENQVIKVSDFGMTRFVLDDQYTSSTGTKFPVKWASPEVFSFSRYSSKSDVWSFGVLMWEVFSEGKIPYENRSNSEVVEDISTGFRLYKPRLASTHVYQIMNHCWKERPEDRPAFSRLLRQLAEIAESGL

Structure (SMILES): C[C@@H]1CCN(C(=O)CC#N)C[C@@H]1n1ccc2cnc3[nH]ccc3c21
- IC50 [1]: > 1 µM
- IC50 (Aurora kinase C): > 1 µM
- bioavailability [2]: 103%
- IC50 [3]: > 1 µM
- IC50 [4]: > 1 µM
- AUC(0-t) at 24 h [5]: 0.889 µg·h/mL
- half-life [6]: 2.58 h
- IC50 (cells): 0.0043 µM
- IC50 [7]: > 1 µM
- IC50 (Ephrin type-A receptor 2): > 1 µM
- IC50 [8]: > 1 µM
- IC50 [9]: > 1 µM
- Tmax [10]: 0.5 h
- TDI (Cytochrome P450 3A4): 89%
- MST (Rattus norvegicus [11]): 9 days
- IC50 [12]: > 1 µM
- IC50 [13]: > 1 µM
- IC50 [14]: > 1 µM
- IC50 [15]: > 1 µM
- IC50 [16]: > 1 µM
- IC50 [17]: > 1 µM
- MST (Rattus norvegicus [18]): 21 days
- clearance [19]: 1.13 L/h/kg
- IC50 [20]: > 1 µM
- IC50 [21]: 0.0003 µM
- half-life [22]: 1.64 h
- Cmax [23]: 0.26 µg/mL
- IC50 [24]: > 1 µM
- IC50 [25]: 0.00046 µM
- IC50 [26]: > 1 µM
- permeability [27]: 20 10^-6 cm/s
